{"source": "ChEMBL document CHEMBL1201862", "about": "“PubChem BioAssay data set” (2004)", "key": {"[1]": {"assay": "inhibitors of HIV Env-driven cell fusion, dose response, cherry-pick (AID 652057)", "type": "functional, cell-based"}, "[2]": {"assay": "inhibitors of clade B AD8 Env fusion, dose response, cell-based, cherry-pick (AID 652062);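 further: potency is for inhibitors of fusion seen as a drop in luminescence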", "type": "functional"}, "[3]": {"assay": "off-target signal loss in HeLa-CEM21 co-culture – HeLa F-luc CTL cells, cherry-picked, counter-screen for HIV-1 Env fusion inhibitor project, dose response (AID 652040);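 further: potency for signal decrease marking cytotoxic or nonspecific inhibition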", "type": "functional, cell-based"}, "[4]": {"assay": "ZM109 Env clade C HIV-1 fusion inhibitors, dose response, HeLa effector, CEM target cells, luciferase, cherry-pick (AID 652058)", "type": "functional, cell-based"}, "[5]": {"assay": "cells", "type": "functional, cell-based"}, "[6]": {"biological_target": "T1, Calpain-2 catalytic subunit (Sus scrofa, UniProt P43367)", "T1 sequence (P43367 whole entry)": "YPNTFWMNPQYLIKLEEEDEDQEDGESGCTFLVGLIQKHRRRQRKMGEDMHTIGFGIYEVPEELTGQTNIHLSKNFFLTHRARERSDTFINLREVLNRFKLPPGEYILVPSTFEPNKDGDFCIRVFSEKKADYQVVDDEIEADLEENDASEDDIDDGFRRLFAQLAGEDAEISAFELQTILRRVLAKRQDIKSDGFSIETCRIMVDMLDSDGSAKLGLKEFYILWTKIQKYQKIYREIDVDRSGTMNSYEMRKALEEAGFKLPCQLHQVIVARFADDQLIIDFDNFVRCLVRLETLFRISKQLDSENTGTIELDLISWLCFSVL", "assay": "pig calpain II inhibitor potency, dose response, biochemical, fluorogenic peptide substrate (AID 1420)", "type": "functional"}, "[7]": {"assay": "cells", "type": "functional, cell-based", "remark": "listed apart in the source"}, "[8]": {"assay": "Luminescence Cell-Based Dose Retest to Confirm Inhibitors of Cancer Stem Cells. [Related pubchem assays (depositor defined):AID2717, AID2721]", "type": "functional", "settings": "Homo sapiens"}, "[9]": {"system": "Streptococcus sp. 'group A'", "assay": "growth inhibition of control SK(-) GAS strain, dose response, counter-screen for streptokinase expression inhibitor project, luminescence, kanamycin, BacTiterGlo, confirmation (AID 1900)", "type": "functional, organism-based"}, "[10]": {"biological_target": "T2, Streptokinase A (Streptococcus pyogenes serotype M1, UniProt P10520)", "T2 sequence (P10520 whole entry)": "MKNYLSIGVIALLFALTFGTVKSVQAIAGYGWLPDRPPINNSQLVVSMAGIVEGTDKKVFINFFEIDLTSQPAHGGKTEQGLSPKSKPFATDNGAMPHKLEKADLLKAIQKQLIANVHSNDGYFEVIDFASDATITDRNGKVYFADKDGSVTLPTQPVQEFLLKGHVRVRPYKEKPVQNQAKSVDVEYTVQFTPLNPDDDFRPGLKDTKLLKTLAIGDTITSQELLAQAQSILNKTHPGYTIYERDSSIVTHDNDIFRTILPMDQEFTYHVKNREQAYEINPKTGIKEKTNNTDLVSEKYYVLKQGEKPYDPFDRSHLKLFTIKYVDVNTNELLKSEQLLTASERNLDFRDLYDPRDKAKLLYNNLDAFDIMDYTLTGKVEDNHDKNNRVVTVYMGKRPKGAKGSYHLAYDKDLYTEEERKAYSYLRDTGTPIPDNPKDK", "assay": "S. pyogenes streptokinase expression inhibitors, potency, dose response, plasminogen activation absorbance, OD405 (AID 1914);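 further: secreted streptokinase activity via plasminogen activation per viability signal from cell pellet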", "type": "functional, Streptococcus pyogenes M1 GAS"}, "[11]": {"system": "Streptococcus", "assay": "Group A Streptococcus viability loss, dose response, counter-screen for streptokinase expression inhibitor project, luminescence, BacTiterGlo (AID 1915);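 further: potency for reduction of bacterial viability or growth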", "type": "functional, organism-based"}, "[12]": {"biological_target": "Paired box protein Pax-8 (Homo sapiens, UniProt Q06710)", "sequence (Q06710 whole entry)": "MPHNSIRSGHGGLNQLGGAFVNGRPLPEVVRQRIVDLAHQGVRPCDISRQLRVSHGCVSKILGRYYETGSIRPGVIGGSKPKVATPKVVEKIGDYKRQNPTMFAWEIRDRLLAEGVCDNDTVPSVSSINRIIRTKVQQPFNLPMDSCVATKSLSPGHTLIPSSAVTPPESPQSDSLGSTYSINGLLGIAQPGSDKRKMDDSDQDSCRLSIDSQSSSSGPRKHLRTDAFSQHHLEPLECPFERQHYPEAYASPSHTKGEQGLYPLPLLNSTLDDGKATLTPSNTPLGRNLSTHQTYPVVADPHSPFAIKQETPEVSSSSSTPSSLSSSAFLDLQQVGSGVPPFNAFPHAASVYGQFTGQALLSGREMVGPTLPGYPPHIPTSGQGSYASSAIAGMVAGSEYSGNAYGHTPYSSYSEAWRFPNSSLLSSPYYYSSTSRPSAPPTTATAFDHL", "assay": "inhibitors of PAX8-driven TPO luciferase reporter, dose response, RMG-I cells, cherry-pick (AID 687027);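 further: luciferase reporter driven by Pax8 target thyroperoxidase promoter measured by SteadyGlo luminescence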", "type": "functional, cell-based"}, "[13]": {"assay": "intracellular Trypanosoma cruzi inhibitors in host cells – cell-based, plate reader, cherry-pick samples, set 3, dose response (AID 651818);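 further: compounds incubated with infected cells for about four days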", "type": "functional"}, "[14]": {"system": "H9c2", "assay": "cells", "type": "functional, cell-based", "settings": "Rattus norvegicus, H9c2, Myocardium"}, "[15]": {"biological_target": "Disintegrin and metalloproteinase domain-containing protein 17 (Homo sapiens, UniProt P78536)", "sequence (P78536 whole entry, the tested form may be a part)": "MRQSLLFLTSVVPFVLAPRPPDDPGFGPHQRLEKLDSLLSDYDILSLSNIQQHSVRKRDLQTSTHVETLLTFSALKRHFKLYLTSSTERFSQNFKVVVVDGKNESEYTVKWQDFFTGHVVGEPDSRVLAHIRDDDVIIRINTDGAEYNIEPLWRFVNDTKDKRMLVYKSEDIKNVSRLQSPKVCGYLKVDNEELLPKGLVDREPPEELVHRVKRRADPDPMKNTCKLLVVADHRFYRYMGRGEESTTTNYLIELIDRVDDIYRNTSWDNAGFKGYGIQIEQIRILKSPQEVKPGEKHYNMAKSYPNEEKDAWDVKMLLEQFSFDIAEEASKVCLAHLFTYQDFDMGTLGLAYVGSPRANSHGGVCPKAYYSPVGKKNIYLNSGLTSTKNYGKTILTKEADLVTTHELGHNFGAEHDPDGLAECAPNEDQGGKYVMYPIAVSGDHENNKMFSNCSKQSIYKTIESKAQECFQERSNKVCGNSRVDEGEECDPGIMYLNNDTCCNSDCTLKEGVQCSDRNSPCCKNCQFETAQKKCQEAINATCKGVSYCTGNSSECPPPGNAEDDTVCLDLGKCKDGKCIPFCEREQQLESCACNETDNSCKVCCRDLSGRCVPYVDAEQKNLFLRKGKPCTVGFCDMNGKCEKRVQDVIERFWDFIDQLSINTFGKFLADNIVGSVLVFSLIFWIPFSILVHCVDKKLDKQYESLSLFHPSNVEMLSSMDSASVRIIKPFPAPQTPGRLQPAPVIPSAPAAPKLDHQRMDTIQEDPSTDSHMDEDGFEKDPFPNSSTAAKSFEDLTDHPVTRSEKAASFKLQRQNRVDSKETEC", "assay": "ADAM17 protease inhibitors, dose response, counter-screen for ADAM10 exosite inhibitor project, biochemical, quenched FRET substrate (AID 743253)"}, "[16]": {"biological_target": "Induced myeloid leukemia cell differentiation protein Mcl-1 (Homo sapiens, UniProt Q07820)", "sequence (Q07820 whole entry)": "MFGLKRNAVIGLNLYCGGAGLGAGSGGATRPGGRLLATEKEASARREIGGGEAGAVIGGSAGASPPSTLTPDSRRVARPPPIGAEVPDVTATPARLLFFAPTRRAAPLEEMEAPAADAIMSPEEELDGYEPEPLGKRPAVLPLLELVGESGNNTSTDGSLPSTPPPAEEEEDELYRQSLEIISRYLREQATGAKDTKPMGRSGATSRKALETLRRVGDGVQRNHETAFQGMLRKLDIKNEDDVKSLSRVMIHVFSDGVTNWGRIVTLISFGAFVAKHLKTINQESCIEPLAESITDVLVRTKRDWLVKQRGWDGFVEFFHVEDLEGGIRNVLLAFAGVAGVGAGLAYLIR", "type": "functional"}, "[17]": {"system": "Vero", "assay": "cells", "type": "functional, cell-based", "settings": "Chlorocebus sabaeus"}, "[18]": {"assay": "HEp-2 cell cytotoxicity, dose response, cytotoxicity control for RSV inhibitor project, HTS (AID 2410)", "type": "functional", "settings": "human respiratory syncytial virus"}}, "note": "The source made the active and inactive calls."}
{"smiles": "Cc1cc(C)n2nc(NCc3cccc(Br)c3)nc2n1", "values": [{"measurement": "AC50", "setting": "[1]", "result": "7.45 µM (active)"}, {"measurement": "AC50", "setting": "[2]", "result": "2.92 µM (active)"}, {"measurement": "AC50", "setting": "[3]", "result": "7.14 µM (active)"}, {"measurement": "AC50", "setting": "[4]", "result": "7.3 µM (active)"}]}
{"smiles": "O=C(c1ccc(-c2nnc(-c3ccccc3)o2)cc1)N1CCCCCC1", "values": [{"measurement": "EC50", "setting": "[5]", "result": "5.78 µM (active)"}, {"measurement": "IC50", "setting": "[6]", "result": "11 µM (not active)"}, {"measurement": "EC50", "setting": "[7]", "result": "> 350 µM (not active)"}]}
{"smiles": "Cc1ccc(NC2=NCC(Cc3ccc(Br)cc3)S2)cc1", "note": "(centres undefined)", "values": [{"measurement": "AC50", "setting": "[8]", "result": "6.43 µM (active)"}, {"measurement": "EC50", "setting": "[9]", "result": "6.42 µM (active)"}, {"measurement": "EC50", "setting": "[10]", "result": "> 150 µM (not active)"}, {"measurement": "EC50", "setting": "[11]", "result": "10.4 µM (active)"}, {"measurement": "IC50", "setting": "[6]", "result": "5.89 µM (not active)"}]}
{"smiles": "C[C@@H]1CN([C@H](C)CO)C(=O)Cc2cc(NC(=O)Nc3ccc(F)cc3)ccc2O[C@@H]1CN(C)Cc1ccc(Cl)c(Cl)c1", "values": [{"measurement": "AC50", "setting": "[12]", "result": "18.4 µM (active)"}, {"measurement": "AC50", "setting": "[13]", "result": "4.89 µM (active)"}]}
{"smiles": "O=C(CSc1nnnn1-c1ccc2c(c1)OCCO2)OC1CCCCC1", "values": [{"measurement": "IC50", "setting": "[6]", "result": "10.3 µM (not active)"}]}
{"smiles": "O=C1OCCN1C(=O)[C@H]1[C@H](c2ccc([N+](=O)[O-])cc2)C(c2cccc(Cl)c2)=NN1c1ccc(Br)cc1", "values": [{"measurement": "IC50", "setting": "[14]", "result": "> 79 µM (inactive)"}, {"measurement": "IC50", "setting": "[15]", "result": "> 69.5 µM (inactive)"}]}
{"smiles": "O=C(OCc1csc(Nc2ccccc2)n1)c1ccc(Cl)cc1", "values": [{"measurement": "EC50", "setting": "[9]", "result": "12.8 µM (active)"}, {"measurement": "EC50", "setting": "[10]", "result": "34.2 µM (active)"}, {"measurement": "EC50", "setting": "[11]", "result": "> 150 µM (not active)"}, {"measurement": "IC50", "setting": "[15]", "result": "> 69.5 µM (inactive)"}]}
{"smiles": "CC(C)CCC(CCN1CCCC1)c1ccc2c(c1)OCO2", "note": "(centres undefined)", "values": [{"measurement": "IC50", "setting": "[16]", "result": "6.38 µM (not active)"}]}
{"smiles": "CCc1ccc(-c2cc3c(=O)n(CC(=O)NCCCN4CCN(CC)CC4)nc(C)n3n2)cc1", "values": [{"measurement": "IC50", "setting": "[17]", "result": "> 25 µM (active)"}]}
{"smiles": "CCOC(=O)c1c(N)sc(C(O)(C(F)(F)F)C(F)(F)F)c1-c1ccc(Cl)cc1", "values": [{"measurement": "CC50", "setting": "[18]", "result": "11.4 µM (active)"}, {"measurement": "EC50", "setting": "[9]", "result": "1.96 µM (active)"}, {"measurement": "EC50", "setting": "[10]", "result": "6.86 µM (active)"}, {"measurement": "EC50", "setting": "[11]", "result": "10.1 µM (active)"}, {"measurement": "IC50", "setting": "[6]", "result": "13.3 µM (not active)"}]}
{"smiles": "COc1ccc(S(=O)(=O)Nc2ccc3c(c2)CC(=O)N([C@H](C)CO)C[C@@H](C)[C@H](CN(C)Cc2ccc(Cl)c(Cl)c2)O3)cc1", "values": [{"measurement": "AC50", "setting": "[13]", "result": "1.94 µM (active)"}]}
